This note sets out measurements from US20250034165A1, “COMPOUND CONTAINING CYCLOALKYL OR HALOALKYL” (CHIA TAI TIANQING PHARMACEUTICAL GROUP CO., LTD., priority 2021, published 2025).

Data set [1] in a line: In vivo pharmacokinetics in ICR mice. The following applies: for MRT last: read-out: MRT(0-t); for half-life: read-out: T½ (converted); for bioavailability: 10 mg/kg. A digest of the protocol:
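ICR mice (18–20 g, 9 per group, fasted 12 h) received 10 mg/kg of compound intragastrically. Orbital blood was taken from 0 min to 24 h and EDTA-K2 plasma was prepared. Plasma was precipitated with acetonitrile containing diazepam as internal standard and analysed by LC/MS/MS.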

Data set [2] has as its system BAF3-EGFR (del19/T790M/C797S) cells. In words: Inhibition of proliferation of BAF3-EGFR (Del19/T790M/C797S) cells, CCK-8. The following applies: 72 h, read-out: BAF3(EGFR T790M Del19 C797S) cell inhibitory activity IC50. It is filed as cell-based. The essentials:
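Cells seeded at 1.0×10^5 cells/mL in RPMI + 10% FBS, cultured overnight at 37° C, 5% CO2, then compound added in duplicate wells, with untreated cells as negative control. Inhibition rate calculated against negative-control and blank means. IC50 obtained from four-parameter fit of inhibition versus log concentration.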

The nature of data set [3]: In vitro stability in liver microsomes. The format is in vitro ADME. The note with it: Human liver microsome.
In the next data set the test system is NCI-H1975(L858R T790M). In words: Nude mouse subcutaneous xenograft tumor model of NCI-H1975 cells. The format is in vivo, nude mice. The following applies: once a day; for Tumor growth inhibition % (tumor weight, d 18) / Tumor growth inhibition % (volume, d 15): 17 days. An excerpt:
Evaluation on drug effect on nude mouse subcutaneous xenograft tumor model of NCI-H1975 cells: NCI-H1975 cells were inoculated subcutaneously in the right axilla of SPF-grade female nude mice (source: Jiangsu Huachuang Sino Pharmaceutical Technology Co., Ltd.) at 1×10^6 cells/mouse. When the mean tumor volume reached about 200 mm^3, the animals were grouped.
The day of grouping was defined as day 0, and intragastric administration was started on day 0 and performed once a day. The tumor volume was measured 2-3 times a week, meanwhile, the mice were weighed and the data were recorded; the general behavior of the mice was observed and recorded every day. After the experiment was completed, the tumors were removed, weighed, and photographed.
Tumor volume TV (mm^3)=½×(a×b^2),
Relative tumor volume RTV=TVt/TV0,
Relative tumor proliferation rate T/C (%)=(TRTV/CRTV)×100%,
Tumor growth inhibition rate TGI (%)=(1−TW/TW0)×100%;

Setting [4] is: mouse, plasma, 1 mg/kg, IV, read-out: AUC(0-t).
Setting [5] is: mouse, plasma, PO, 10 mg/kg intragastric.
[6] abbreviates: mouse, plasma, PO, 10 mg/kg intragastric, read-out: AUC(0-t).
[7] abbreviates: mouse, plasma, PO, 10 mg/kg intragastric, read-out: Cmax.
[8] abbreviates: mouse, plasma, PO, 10 mg/kg intragastric, read-out: Tmax.

Like-named read-outs stand apart in the source and are kept apart here. A value given as a limit tells only on which side of the number the result lay.

On to `Cc1cc2cc(n1)-c1cnn(C)c1OCCC[C@@H](C1CC1)CN1/C(=N/C2=O)Nc2ccc(NCCN(C)C)cc21` [Example 28], for which the CLz in data set [1] (IV) was 48.8 mL/min/kg. For the same compound, in data set [1] (mouse, plasma, 1 mg/kg, IV), the AUC(0-inf) was found to be 341 ng·h/mL, the MRT last turned out to be 3.96 h and the half-life was 4.64 h. Also, the area under the curve AUC(0-t) in data set [1] (setting [4]) is 336 ng·h/mL. In data set [1] (mouse, plasma, PO vs IV), this compound showed a bioavailability of 27.9%. Besides, in data set [1] (setting [5]), the area under the curve AUC(0-inf) was found to be 965 ng·h/mL, the MRT last was 7.72 h and the half-life is 4.29 h. The exposure AUC(0-t) in data set [1] (setting [6]) came to 938 ng·h/mL. The highest concentration (Cmax) in data set [1] (setting [7]) turned out to be 74.5 ng/mL. The Tmax in data set [1] (setting [8]) came out at 6 h. Moreover, the half-inhibitory concentration (IC50) in data set [2] (Ba/F3 EGFR-Del19/T790M/C797S) is below 1 nM.
Take `Cc1cc2cc(n1)-c1cnn(C)c1OCCC[C@@H](C1CC1)CN1/C(=N/C2=O)Nc2cc(N[C@H]3CC[C@@H](N(C)C)CC3)ccc21` [Example 26]: in data set [3], the “Stability in liver microsomes (residual %, T = 60 min)” value (shortened to “Stability … (residual %, T = 60 min)”) was determined as 98.30%. In data set [2], the IC50 was below 1 nM.
`Cc1cc2cc(n1)-c1cnn(C)c1OCCC[C@@H](C1CC1)CN1/C(=N/C2=O)Nc2cc(N[C@H]3CC[C@H](N(C)C)CC3)ccc21` [Example 25]: the figures for the “Tumor growth inhibition % (tumor weight, d 18)” value in the data set with NCI-H1975(L858R T790M) (5 mpk (i.g)) and in the data set with NCI-H1975(L858R T790M) (10 mpk (i.g)) were 31.4% (tumor and 75.8% (tumor, respectively. For the same compound, the entries for the “Tumor growth inhibition % (volume, d 15)” value with NCI-H1975(L858R T790M) (5 mpk (i.g)) and with NCI-H1975(L858R T790M) (10 mpk (i.g)) were 22.5% (volume, and 72.5% (volume,, respectively. In addition, the “Stability … (residual %, T = 60 min)” value in data set [3] came to 103.07%. Also, the IC50 in data set [2] was below 1 nM.
In the case of `Cc1cc2cc(n1)-c1cnn(C)c1OCCC[C@@H](C1CC1)CN1/C(=N/C2=O)Nc2cc(N[C@H](C)C3COC3)ccc21` [Example 39], in data set [1] (IV), the “AUC(0-t)” value was 261 ng·h/mL, the “AUC(0-∞)” value was found to be 262 ng·h/mL, the CLz was determined as 63.5 mL/min/kg and the “MRT(0-t)” value is reported as 0.61 h. Moreover, the T½ in data set [1] (IV) is 1.74 h. Also, the “F (%)” value in data set [1] (PO vs IV) turned out to be 118.35%. In data set [1] (PO, 10 mg/kg intragastric), the exposure AUC(0-t) worked out at 3093 ng·h/mL, the “AUC(0-∞)” value worked out at 3096 ng·h/mL, the peak concentration (Cmax) was 488 ng/mL and the “MRT(0-t)” value is on record as 3.84 h. In data set [1] (PO, 10 mg/kg intragastric), the Tmax is on record as 0.50 h and the T½ worked out at 2.33 h. In the data set with NCI-H1975(L858R T790M) (10 mpk (i.g), 14 days), the “Tumor growth inhibition % (tumor weight, d 14)” value is 65.1% (tumor and the “Tumor growth inhibition % (volume, d 12)” value is reported as 70.2%. For the same compound, the IC50 in data set [2] was below 1 nM.
For the compound `C[C@H](Nc1ccc2c(c1)N/C1=N\C(=O)c3cc(F)nc(c3)-c3cnn(C)c3OCCC[C@@H](C3CC3)CN12)C(F)(F)F` [Example 9], the “Stability … (residual %, T = 60 min)” value in data set [3] is reported as 59.54%.
Compound `Cc1cc2cc(n1)-c1cnn(C)c1OCCC[C@@H](C1CC1)CN1/C(=N/C2=O)Nc2cc(NC3(C)COC3)ccc21` [Example 29] returned a CLz in data set [1] (IV) of 19.7 mL/min/kg. Besides, in data set [1] (mouse, plasma, 1 mg/kg, IV), the area under the curve AUC(0-inf) was 850 ng·h/mL, the MRT last came out at 1.1 h and the half-life is 1.65 h. In addition, the AUC(0-t) in data set [1] (setting [4]) came out at 845 ng·h/mL. The compound also came in with a bioavailability in data set [1] (mouse, plasma, PO vs IV) of 42.9%. In addition, in data set [1] (setting [5]), the AUC(0-inf) is 3640 ng·h/mL, the MRT last was determined as 5.99 h and the half-life was 3.06 h. In addition, the exposure AUC(0-t) in data set [1] (setting [6]) amounted to 3620 ng·h/mL. For the same compound, in data set [1] (setting [7]), the Cmax was found to be 553 ng/mL. In addition, in data set [1] (setting [8]), the Tmax was found to be 0.5 h. In the data set on NCI-H1975(L858R T790M) (5 mpk (i.g)), the “Tumor growth inhibition % (tumor weight, d 18)” value is listed as 41.7% (tumor weight, and the “Tumor growth inhibition % (volume, d 15)” value was 40.0% (volume, d 15). In addition, in the data set on NCI-H1975(L858R T790M) (10 mpk (i.g)), the “Tumor growth inhibition % (tumor weight, d 18)” value is recorded as 83.9% (tumor and the “Tumor growth inhibition % (volume, d 15)” value is 75.0% (volume,. Also, in data set [2] (Ba/F3 EGFR-Del19/T790M/C797S), the IC50 was below 1 nM.
